Assays:
[1] = target: PCP receptor; experiment: [3H]TCP radioreceptor assay (binding to PCP recognition sites); design: species or system rat (male Sprague-Dawley, whole brain); conditions: for Ki: [3H]TCP approx. 1 nM, rat brain membranes, mean of at least two determinations
Summary of the method: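 Rat whole-brain membranes (Tris-HCl, pH 7.7), 0.5 mg protein/tube, incubated with ~1 nM [3H]TCP for 25 min at room temperature; non-specific binding defined with 100 μM PCP. Bound ligand collected by filtration and counted by scintillation; Ki from at least two determinations, or % inhibition at 10 μM.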

[2] = tested on: cultured cortical neurons; experiment: Antagonism of NMDA-induced neurotoxicity in cultured cortical neurons (LDH release); type: cell-based, mouse (Swiss-Webster); conditions: 500 μM NMDA, 30 min exposure, LDH 24 h later
Method: Antagonism of NMDA-induced Neurotoxicity in Cultured Neurons
Preparation of Cultured Cortical Neurons
Pregnant, Swiss-Webster mice were obtained from Taconic Farms (Germantown, New York) and sacrificed 16 days post conception. Fetuses were removed and placed in a sterile dish containing Hank's balanced salt solution (HBSS), pH 7.4. Brain cortices were dissected, meninges were removed, the tissue was minced and placed into a solution of HBSS containing 0.25% (w/v) trypsin at 37° C. for 15 minutes. Tissue was then triturated with a sterile pasteur pipet, diluted with minimal essential media (Gibco 330-1430), pH 7.4, supplemented with 10% horse serum, 10% fetal calf serum, 2 mM 1-glutamine, 21 mM d-glucose, 2.2 g/L sodium bicarbonate, 1000 U/mL penicillin, and 1,000 μg/mL streptomycin. Cells were plated onto Falcon primaria 96 well plates at a final density of 50,000 cells/well and incubated at 37 °C in the presence of 5% (v/v) carbon dioxide. After 5 days, plating media was replaced with maintenance media containing minimal essential media (Gibco 330-1430), pH 7.4, supplemented with 10% horse serum, […], 21 mM d-glucose, 2.2 g/L sodium bicarbonate, 1,000 U/mL penicillin, 1,000 μg/mL streptomycin, and 10 μM cytosine arabinoside. On days 7 and 10, media was replaced with maintenance media as above lacking the cytosine arabinoside. Experiments were conducted on day 13.
Neuroprotection Assessment
Day 13 cultured cortical neurons were washed twice with minimal essential media, pH 7.4 and then exposed for 30 minutes to 500 μM N-methyl-D-aspartic acid (NMDA) with or without varying concentrations of test agents. […] MK-801 and test agents were prepared in minimal essential media supplemented with 21 mM d-glucose and 2.2 g/L sodium bicarbonate (MEM). After 30 minutes, media was replaced with MEM alone. Exposure of neurons to test agents was limited to the NMDA treatment period. Twenty-four hours after removal of NMDA, an aliquot of media from each well was removed for assessment of cell injury by determining lactate dehydrogenase (LDH) activity by the method of Wroblewski and LaDue Proc. Soc. Exp. Biol. Med. 1955, 90, 210-213. The results are expressed as an IC50 (in nM) value (concentration causing 50% inhibition) for the antagonism of NMDA--inducedneurotoxicity. Table 3 summarizes the results obtained from the testing of representative compounds of the invention in the [^3 H]TCP radioreceptor assay as well as in the antagonism of NMDA-induced neurotoxicity in cultured neurons.

CC1C2c3ccccc3C(c3cccc[n+]32)C1(c1ccoc1)c1ccoc1 (single isomer, unassigned) [181(d), 6,11-ethano-12,12-di(3-furyl)-13-methyl-6,11-dihydrobenzo[b]quinolizinium hexafluorophosphate]
Ki [1]: 6.15 nM | IC50 [2]: 55 nM

c1ccc2c(c1)C1C3CCc4occc4C3(c3ccoc3)C2c2cccc[n+]21 (centres unmarked) [7(b), 6,11[[5',4']-4'-(3-furyl)-4',5',6',7'-tetrahydrobenzofuryl]6,11-dihydrobenzo[b]quinolizinium hexafluorophosphate]
Ki [1]: 1.38 nM | IC50 ([2]; Mus musculus, Cortical neurone): 7.6 nM

c1ccc2c(c1)CC1C3c4ccccc4C(c4cccc[n+]43)C21c1ccoc1 (centres unmarked) [6(d), 6.11[[2',3']-3'-(3-furyl)indanyl]6,11-dihydrobenzo[b]quinolizinium chloride]
Ki [1]: 1.2 nM | IC50 ([2]; Mus musculus, Cortical neurone): 244 nM

CC1C2c3ccccc3C(c3cccc[n+]32)C1(c1ccoc1)c1ccoc1 (single isomer, unassigned) [181(c), 6,11-ethano-12,12-di(3-furyl)-13-methyl-6,11-dihydrobenzo[b]quinolizinium hexafluorophosphate]
Ki [1]: 6.36 nM | IC50 [2]: 11.4 nM

[O-][Cl+3]([O-])([O-])[O-].c1ccc2c(c1)C1CC(c3ccoc3)(c3ccn[nH]3)C2c2cccc[n+]21 (single isomer, unassigned) [185(a), 6,11-ethano-12-(3-furyl)-12-(5-pyrazolyl]-6,11-dihydrobenzo[b]quinolizinium perchlorate]
Ki [1]: 4.55 nM | IC50 ([2]; Mus musculus, Cortical neurone): 32.6 nM

c1csc(C2(c3cccs3)CC3c4ccccc4C2c2cccc[n+]23)c1 (centres unmarked) [48(b), 6,11-ethano-12,12-di(2-thienyl)-6,11-dihydrobenzo[b]quinolizinium chloride]
Ki [1]: 2.08 nM | IC50 [2]: 23 nM

c1ccc2c(c1)C1CC(c3ccsc3)(c3ccsc3)C2c2cccc[n+]21 (centres unmarked) [52(F), 6,11-ethanol 12,12-di(3-thienyl)-6,11-dihydrobenzo[b]quinolizinium chloride]
Ki [1]: 1.82 nM | IC50 ([2]; Mus musculus, Cortical neurone): 39 nM

Oc1ccc2c(c1)C1c3cccc[n+]3C2CC1(c1cc[nH]n1)c1cc[nH]n1 (centres unmarked) [195(c), 12,12-di(pyrazol-3-yl)-9-hydroxy-6,11-ethano-6,11-dihydrobenzo[b]quinolizinium chloride]
Ki [1]: 12.6 nM | IC50 ([2]; Mus musculus, Cortical neurone): 30.8 nM

CCOC1(c2ccoc2)CC2c3ccccc3C1c1cccc[n+]12 (centres unmarked) [11(g), 6,11-ethano-12-(3-furyl)-12-ethoxy-6,11-dihydrobenzo[b]quinolizinium chloride]
Ki [1]: 18 nM | IC50 [2]: 2000 nM

c1ccc(C2(c3ccccc3)CC3c4ccccc4C2c2cccc[n+]23)cc1 (centres unmarked) [17(b), 6,11-ethano-12,12-diphenyl-6,11-dihydrobenzo[b]quinolizinium chloride]
Ki [1]: 8.18 nM | IC50 [2]: 197 nM

CC12CC(c3ccccc3)(c3ccccc3)C(c3ccccc31)c1cccc[n+]12 (centres unmarked) [19(b), 6,11-ethano-12,12-diphenyl-6-methyl-6,11-dihydro-benzo[b]quinolizinium. Chloride]
Ki [1]: 6.8 nM | IC50 ([2]; Mus musculus, Cortical neurone): 102 nM

N#CC12CC(c3ccoc3)(c3ccoc3)C(c3ccccc31)c1cccc[n+]12 (centres unmarked) [171(b), 6,11-ethano-12,12-di(3-furyl)-6-cyano-6,11-dihydrobenzo[b]quinolizinium chloride]
Ki [1]: 10.2 nM | IC50 ([2]; Mus musculus, Cortical neurone): 26.5 nM

c1ccc2c(c1)C1CC(c3ccn[nH]3)(c3ccn[nH]3)C2c2cccc[n+]21 (centres unmarked) [63(d), 6,11-ethano-12,12-di(5-pyrazolyl)-6,11-dihydrobenzo[b]quinoliziniumperchlorate]
Ki [1]: 10 nM | IC50 [2]: 1630 nM

Oc1ccc2c(c1)C1c3cccc[n+]3C2CC1(c1ccoc1)c1ccoc1 (centres unmarked) [Example 193, 12,12-di(3-furyl)-9-hydroxy-6,11-ethano-6,11-dihydrobenzo[b]quinolizinium chloride]
Ki [1]: 2.13 nM | IC50 ([2]; Mus musculus, Cortical neurone): 11.8 nM

CC12CC(c3ccoc3)(c3ccoc3)C(c3ccccc31)c1cccc[n+]12 (centres unmarked) [50(b), 6,11ethano-12,12-di(3-furanyl)-6-methyl-6,11-dihydrobenzo[b]quinolizinilium chloride]
Ki [1]: 1.24 nM | IC50 ([2]; Mus musculus, Cortical neurone): 22 nM

[O-][Cl+3]([O-])([O-])[O-].c1ccc2c(c1)C1CC(c3ccoc3)(c3ccn[nH]3)C2c2cccc[n+]21 (single isomer, unassigned) [185(b), 6,11-ethano-12-(3-furyl)-12-(5-pyrazolyl]-6,11-dihydrobenzo[b]quinolizinium perchlorate]
Ki [1]: 6.29 nM | IC50 [2]: 53 nM

c1ccc2c(c1)C1CC(c3ccn[nH]3)(c3ccn[nH]3)C2c2cccc[n+]21 (centres unmarked) [64(f), 11-ethano-12,12-di-[(pyrazol-5-yl)-6,11-dihydrobenzo[b]quinolizinium chloride]
Ki [1]: 13 nM | IC50 [2]: 360 nM

c1ccc2c(c1)-c1ccccc1C21CC2c3ccccc3C1c1cccc[n+]12 (centres unmarked) [58(c), 6,11-ethano-12,12-spiro-9H-fluorenyl-6,11-dihydrobenzo[b]quinolizinium chloride]
[3H]TCP percent inhibition @ 10 μm ([1]; inhibition of [3H]TCP binding at 10 μM): 32% | IC50 ([2]; Mus musculus, Cortical neurone): > 1000 nM

c1coc(C2(c3ccco3)CC3c4ccccc4C2c2cccc[n+]23)c1 (centres unmarked) [57(d), 6,11-ethano-12,12-di(2-furanyl)-6,11-dihydrobenzo[b]quinolizinium chloride]
Ki [1]: 1.9 nM | IC50 [2]: 36 nM

CC12CC(c3cccs3)(c3cccs3)C(c3ccccc31)c1cccc[n+]12 (centres unmarked) [47(d), 6,11-ethano-12,12-di(2-thienyl)-6-methyl-6,11-dihydrobenzo[b]quinoliziniumchloride]
Ki [1]: 2.11 nM | IC50 ([2]; Mus musculus, Cortical neurone): 40 nM

Fc1ccc2c(c1)C1c3cccc[n+]3C2CC1(c1ccoc1)c1ccoc1.[O-][Cl+3]([O-])([O-])[O-] (centres unmarked) [196(c), 12,12-di(3-furyl)-9-fluoro-6,11-ethano-6,11-dihydrobenzo[b]quinolizinium perchlorate]
Ki [1]: 4.11 nM | IC50 ([2]; Mus musculus, Cortical neurone): 80 nM

COC(=O)C12CC(c3ccoc3)(c3ccoc3)C(c3ccccc31)c1cccc[n+]12 (centres unmarked) [176(d), 6,11-ethano-12,12-di(3-furyl)-6-methoxycarbonyl-6,11-dihydrobenzo[b]quinolizinium chloride]
Ki [1]: 39.4 nM

c1ccc2c(c1)C1CC(c3ccoc3)(c3ccoc3)C2c2c3ccccc3cc[n+]21 (centres unmarked) [180(g), 14,14-di(3-furyl)-8,13-ethano-8,13-dihydrodibenzo[a,g]quinolizinium chloride]
Ki [1]: 19.9 nM

CCOC1(c2ccoc2)CC2c3ccccc3C1c1cccc[n+]12 (centres unmarked) [11(F), 6,11-ethano-12-(3-furyl)-12-ethoxy-6,11-dihydrobenzo[b]quinolizinium chloride]
Ki [1]: 73 nM | IC50 ([2]; Mus musculus, Cortical neurone): 2550 nM

Cn1ccc(C2(c3ccn(C)n3)CC3c4ccccc4C2c2cccc[n+]23)n1 (centres unmarked) [158(f), 6,11-ethano-12,12-di[3-(1-methylpyrazolyl)]-6,11-dihydrobenzo[b]quinolizinium chloride]
Ki [1]: 632 nM

c1cncc(C2(c3cccnc3)CC3c4ccccc4C2c2cccc[n+]23)c1 (centres unmarked) [42(E), 6,11-ethano-12,12-di(3-pyridyl)-6,11-dihydrobenzo[b]quinolizinium chloride]
Ki [1]: 2270 nM

CC12c3ccccc3C(c3cccc[n+]31)C(c1ccccc1)(c1ccccc1)C21CC1 (centres unmarked) [51(c), 6,11-ethano-12,12-diphenyl-6-methyl-13,13-(spirocyclopropane)-6,11-dihydrobenzo[b]quinolizinium chloride]
Ki [1]: 22.3 nM | IC50 ([2]; Mus musculus, Cortical neurone): 83 nM

Reference: patent US5554620A, “Substituted 6,11-ethano-6,11-dihydrobenzo[b] quinolizinium salts and compositions and methods of use thereof” (Sterling Winthrop Inc., priority 1994, dated 1996)
